pIC50: −log10 of the molar value.
Assays:
[1] = target: Gppcp-bound recombinant K-Ras4B G12C mutant protein (amino acids 1-169, C51S/C80L/C118S) (Homo sapiens, UniProt P01116, C118S/C51S/C80L/G12C); test: KRASG12C binding assay (LC-MS compound binding rate); settings: test compound final concentration 0.5 μM, 25° C., 1 hour
Protocol: As test compounds for the KRASG12C binding assay, the compounds obtained in the “Preparation of Compounds” section were used. Sample solutions each containing a test compound were prepared in the form of a 10 mM DMSO solution.
Gppcp-bound recombinant K-Ras4B G12C mutant protein (amino acids 1-169, C51S/C80L/C118S, SEQ ID NO:1) was diluted with a buffer (1×TBS, 0.1 mM TCEP, 0.25 mM MgCl2, 50 μM Gppcp) to prepare a 50 nM protein solution. K-Ras4B is the major splicing variant of K-Ras. Amino acid sequence of residues 1 to 150 including the compounds' binding region of K-Ras4B is exactly same as that of K-Ras4A, the other splicing variant (Oncotarget. 2016 Jul. 19; 7(29): 46717-46733). A sample solution containing 10 mM test compound was diluted ten-fold with DMSO to make a 1 mM sample solution, and then diluted twenty-fold with DMSO to make a 50 μM sample solution. 1 μL of a 50 μM sample solution was added to 100 μL of a 50 nM protein solution to adjust the final concentration of a test compound to be 0.5 μM in the mixture. The mixtures were stored in an incubator at 25° C. for 1 hour, and 10 μL of a 1×TBS solution containing 2% formic acid was added to stop the reaction, followed by LC-MS measurement. LC-MS measurement was performed using Xevo G2-S Q-Tof manufactured by Waters, and reverse-phase chromatography was performed with a desalting column. A mass spectrum of positive ions was obtained by electrospray. For a mass spectrum, a spectrum of polyvalent ions was collectively converted to a molecular weight by using OpenLynx software by the MaxEnt technique, and a compound binding rate was calculated from the ratio of the signal intensity of a peak that corresponds to the molecular weight of the protein to the signal intensity of a peak that corresponds to the molecular weight of the protein conjugated with the compound.
The binding assay of the test compounds was conducted at a final concentration of 0.5 μM. A binding rate of 80% or more is rated “A”, a binding rate of 60% or more and less than 80% is rated “B”, a binding rate of 40% or more and less than 60% is rated “C”, a binding rate of 20% or more and less than 40% is rated “D”, and a binding rate of less than 20% is rated “E”. N.D.=not determined. Binding rate % is the ratio of KRAS signal intensity at the molecular weight of one molecule adduct to the sum of all the KRAS signal intensity (unbound form and adducts) in mass spectrum.
Thus, binding rate 100% means that only the one molecule adduct was observed without any unbound KRAS.

[2] = target: T1, GMPPNP-bound KRAS G12C protein and cRAF RAS-binding domain (cRAF-RBD) (Homo sapiens, UniProt P01116, G12C); test: Inhibitory activity on interaction between KRAS G12C and cRAF (Alpha technology); format: biochemical; settings: GMPPNP-bound KRAS G12C incubated with compound at 25° C. for 1 hour, then cRAF-RBD, Alpha signal; read-out: IC50
T1 construct: made in house; host or cells: E. coli
Protocol: Interaction between recombinant K-Ras4B G12C mutant protein (amino acids 1-169, SEQ ID NO:2) and cRAF RAS-binding domain (cRAF-RBD, amino acids 50-132, Jena Biosciences GmbH) was measured using Alpha technology (PerkinElmer Inc.).
Recombinant KRAS G12C protein with an N-terminal His-tag was expressed in E. coli and purified by affinity chromatography. To prepare GTP-bound form and GDP-bound form of KRAS G12C protein, 50 μM KRAS G12C protein was incubated with 1 mM GMPPNP (Guanosine-5′-[(β,γ)-imido]triphosphate, Tetralithium salt) (Jena Bioscience GmbH) and 1 mM GDP, respectively, in a loading buffer (20 mM Tris-HCl (pH 7.5), 50 mM NaCl, 1 mM DTT and 2.5 mM EDTA) for 1 hour on ice. After the incubation, MgCl2 was added to a final concentration of 10 mM, followed by incubation at room temperature for 30 minutes. The mixture was allowed to pass through a NAP-5 column to remove free nucleotides and purified, and the resultant nucleotide-bound KRAS G12C protein was used for compound evaluation.
For the measurement of the inhibitory activity of compounds on interaction between KRAS G12C and cRAF-RBD, GMPPNP-bound KRAS G12C protein was incubated with various concentrations of compound in a reaction buffer (20 mM Tris-HCl (pH 7.5), 100 mM NaCl, 1 mM MgCl2, 1 mM TCEP, 0.1% Tween 20) at 25° C. for 1 hour. After the incubation, recombinant cRAF-RBD and Alpha detection reagents were added and incubated at room temperature for 1.5 hours for binding. Interaction 5 of KRAS G12C and cRAF-RBD was monitored by measuring Alpha signal. Inhibition % was calculated using the signal from the reaction without test compound (DMSO control) as 0% inhibition and the signal from the reaction using GDP-bound KRAS G12C in place of GMPPNP-bound KRAS G12C as 100% inhibition. IC50 values were calculated from dose titration curve using curve fitting by XLfit software (IDBS).

Compound | binding rate [1] | pIC50 [2]
CO[C@H]1CC[C@H](NC/C=C/C(=O)Nc2ccc(C(=O)c3c[nH]c4c(-c5cc6ncn(C)c6cc5C(F)(F)F)cc(Cl)cc34)cc2C#N)CC1 [Example 47, (E)-N-(4-(5-chloro-7-(1-methyl-6-(trifluoromethyl)-1H-benzo[d]imidazol-5-yl)-1H-indole-3-carbonyl)-2-cyanophenyl)-4-(((1r,4r)-4-methoxycyclohexyl)amino)but-2-enamide] | A (A binding rate of 80% or more is rated “A”) | 6.25
CO[C@H]1CC[C@H](NC/C=C/C(=O)NC2CCN(C(=O)c3ccc4c(-c5cc6ncn(C)c6cc5C)cccn34)CC2)CC1 [Example 48, (2E)-N-{1-[8-(1,6-dimethyl-1H-1,3-benzodiazol-5-yl)indolizine-3-carbonyl]piperidin-4-yl}-4-{[trans-4-methoxycyclohexyl]amino}but-2-enamide] | E (a binding rate of less than 20% is rated “E”) | < 5.17
Cc1cc(C(=O)c2ccc3c(-c4cc5ncn(C)c5cc4C(F)(F)F)cccn23)cc(C#N)c1NC(=O)/C=C/CNC(C)(C)C [Example 50, (2E)-4-(tert-Butylamino)-N-(2-cyano-6-methyl-4-{8-[1-methyl-6-(trifluoromethyl)-1H-1,3-benzodiazol-5-yl]indolizine-3-carbonyl}phenyl)but-2-enamide] | E (a binding rate of less than 20% is rated “E”) | 5.92
Cn1cc2c(Cl)c(-c3cccn4c(C(=O)c5ccc(NC(=O)/C=C/CNC(C)(C)C)c(C#N)c5)ccc34)ccc2n1 [Example 52, (2E)-4-(tert-Butylamino)-N-{4-[8-(4-chloro-2-methyl-2H-indazol-5-yl)indolizine-3-carbonyl]-2-cyanophenyl}but-2-enamide] | B (a binding rate of 60% or more and less than 80% is rated “B”) | 6.59
Cc1ccc2c(cnn2C)c1-c1cccn2c(C(=O)c3ccc(NC(=O)/C=C/CNC(C)(C)C)c(C#N)c3)ccc12 [Example 53, (2E)-4-(tert-Butylamino)-N-{2-cyano-4-[8-(1,5-dimethyl-1H-indazol-4-yl)indolizine-3-carbonyl]phenyl}but-2-enamide] | A (A binding rate of 80% or more is rated “A”) | 6.82
Cc1cc2c(cnn2C)cc1-c1cccn2c(C(=O)c3ccc(NC(=O)/C=C/CNC(C)(C)C)c(C#N)c3)ccc12 [Example 54, (2E)-4-(tert-Butylamino)-N-{2-cyano-4-[8-(1,6-dimethyl-1H-indazol-5-yl)indolizine-3-carbonyl]phenyl}but-2-enamide] | A (A binding rate of 80% or more is rated “A”) | 6.74
CO[C@H]1CC[C@H](NC/C=C/C(=O)Nc2ccc(C(=O)c3ncc4c(-c5cc6ncn(C)c6cc5C)cccn34)cc2C#N)CC1 [Example 57, (E)-N-(2-cyano-4-(8-(1,6-dimethyl-1H-benzo[d]imidazol-5-yl)imidazo[1,5-a]pyridine-3-carbonyl)phenyl)-4-(((1r,4r)-4-methoxycyclohexyl)amino)but-2-enamide] | C (a binding rate of 40% or more and less than 60% is rated “C”) | 6.80
CO[C@H]1CC[C@H](NC/C=C/C(=O)Nc2ccc(C(=O)c3nn(C)c4c(-c5cc6ncn(C)c6cc5C)cccc34)cc2C#N)CC1 [Example 58, (E)-N-(2-cyano-4-(7-(1,6-dimethyl-1H-benzo[d]imidazol-5-yl)-1-methyl-1H-indazole-3-carbonyl)phenyl)-4-(((1r,4r)-4-methoxycyclohexyl)amino)but-2-enamide] | B (a binding rate of 60% or more and less than 80% is rated “B”) | 6.62
C=C(C)c1c(-c2cccn3c(C(=O)c4ccc(NC(=O)/C=C/CNC(C)(C)C)c(C#N)c4)ccc23)c(C)cc2c1ncn2C [Example 61, (E)-4-(tert-butylamino)-N-(2-cyano-4-(8-(1,6-dimethyl-4-(prop-1-en-2-yl)-1H-benzo[d]imidazol-5-yl)indolizine-3-carbonyl)phenyl)but-2-enamide] | A (A binding rate of 80% or more is rated “A”) | 6.64
CO[C@H]1CC[C@H](NC/C=C/C(=O)Nc2ccc(C(=O)c3cc(Cl)c4c(-c5cc6ncn(C)c6cc5C)cccn34)cc2C#N)CC1 [Example 65, (E)-N-(4-(1-chloro-8-(1,6-dimethyl-1H-benzo[d]imidazol-5-yl)indolizine-3-carbonyl)-2-cyanophenyl)-4-(((1r,4r)-4-methoxycyclohexyl)amino)but-2-enamide] | B (a binding rate of 60% or more and less than 80% is rated “B”) | 6.85
CO[C@H]1CC[C@H](NC/C=C/C(=O)Nc2ccc(C(=O)c3ccc4c(-c5c(C)cc6c(ncn6C)c5-c5cncnc5)cccn34)cc2C#N)CC1 [Example 69, (E)-N-(2-cyano-4-(8-(1,6-dimethyl-4-(pyrimidin-5-yl)-1H-benzo[d]imidazol-5-yl)indolizine-3-carbonyl)phenyl)-4-(((1r,4r)-4-methoxycyclohexyl)amino)but-2-enamide] | B (a binding rate of 60% or more and less than 80% is rated “B”) | 6.59
CO[C@H]1CC[C@H](NC/C=C/C(=O)Nc2ccc(C(=O)c3ccc4c(-c5ccc6nn(C)cc6c5Cl)cccn34)cc2C#N)CC1 [Example 71, (E)-N-(4-(8-(4-chloro-2-methyl-2H-indazol-5-yl)indolizine-3-carbonyl)-2-cyanophenyl)-4-(((1r,4r)-4-methoxycyclohexyl)amino)but-2-enamide] | A (A binding rate of 80% or more is rated “A”) | 6.85
CO[C@H]1CC[C@H](NC/C=C/C(=O)Nc2ccc(C(=O)c3ccc4c(-c5c(Cl)ncn5C(C)C)cccn34)cc2C#N)CC1 [Example 74, (E)-N-(4-(8-(4-chloro-1-isopropyl-1H-imidazol-5-yl)indolizine-3-carbonyl)-2-cyanophenyl)-4-(((1r,4r)-4-methoxycyclohexyl)amino)but-2-enamide] | B (a binding rate of 60% or more and less than 80% is rated “B”) | 6.77
CO[C@H]1CC[C@H](NC/C=C/C(=O)Nc2ccc(C(=O)c3ccc4c(-c5cc6nn(C)cc6cc5C)cccn34)cc2C#N)CC1 [Example 75, (E)-N-(2-cyano-4-(8-(2,5-dimethyl-2H-indazol-6-yl)indolizine-3-carbonyl)phenyl)-4-(((1r,4r)-4-methoxycyclohexyl)amino)but-2-enamide] | A (A binding rate of 80% or more is rated “A”) | 6.82

Reference: patent US12673041B2, “4-aminobut-2-enamide derivatives and salt thereof” (TAIHO PHARMACEUTICAL CO., LTD., priority 2019, dated 2026)
